Test system: phosphorylation of Akt at Serine 473 in U87 MG cells
Assay: cells
Settings: Homo sapiens, U-87 MG, 2 h, read-out: U87Cell IC50

Compound | IC50 [µM]
Cc1nc(N)nc(-c2cccnc2Nc2cnc(Cl)c(NS(=O)(=O)N3CCOCC3)c2)n1 [Example 366, N-(5-(3-(4-Amino-6-Methyl-1,3,5-Triazin-2-yl)Pyridin-2-Ylamino)-2-Chloropyridin-3-yl)Morpholine-4-Sulfonamide] | 0.04
Cc1nc(N)nc(-c2cccnc2Nc2cnc(Cl)c(NS(=O)(=O)N(C)C(C)C)c2)n1 [Example 367, N-(5-(3-(4-Amino-6-Methyl-1,3,5-Triazin-2-yl)Pyridin-2-Ylamino)-2-Chloropyridin-3-yl)-N-Isopropyl-N-Methylaminosulfamide] | 0.246
COc1ccc(NCc2cnc(Nc3ccc(OC)nc3)c(-c3nc(C)nc4[nH]cnc34)c2)cc1 [Example 77, 5-((4-methoxyphenylamino)methyl)-N-(6-methoxypyridin-3-yl)-3-(2-methyl-9H-purin-6-yl)pyridin-2-amine] | 0.167

Same assay, conditions: Homo sapiens, U-87 MG, 2 h, read-out: U87Cell IC50, pAkt (Ser 473), U87 MG cells, two hours with compound

IC50 [µM] | Compound
0.015 | COc1ncc(Nc2ncc(C3=CCOCC3)cc2-c2nc(C)nc(N)n2)cc1F [Example 343, 4-(5-(3,6-Dihydro-2H-Pyran-4-yl)-2-(5-Fluoro-6-Methoxypyridin-3-Ylamino)Pyridin-3-yl)-6-Methyl-1,3,5-Triazin-2-Amine]
0.088 | CC(=O)Nc1ccc(Nc2ncccc2-c2nc(C)nc3[nH]cnc23)cc1 [Example 102, N-(4-(3-(2-methyl-9H-purin-6-yl)pyridin-2-ylamino)phenyl)acetamide]
2.13 | Cc1nc(N)nc(-c2cccnc2Nc2ccc(NC(=O)Nc3cccc(F)c3)nc2)n1 [Example 191, 1-(5-(3-(4-Amino-6-Methyl-1,3,5-Triazin-2-yl)Pyridin-2-Ylamino)Pyridin-2-yl)-3-(3-Fluorophenyl)Urea]
0.412 | COc1cccc(Nc2cnc(Nc3ccc(OC)nc3)c(-c3nc(C)nc4[nH]cnc34)c2)c1 [Example 96, N5-(3-methoxyphenyl)-N2-(6-methoxypyridin-3-yl)-3-(2-methyl-9H-purin-6-yl)pyridine-2,5-diamine]
1.22 | CC(=O)Nc1cc(-c2cnccc2Nc2cccc3[nH]ccc23)nc(C)n1 [Example 108, N-(6-(4-(1H-indol-4-ylamino)pyridin-3-yl)-2-methylpyrimidin-4-yl)acetamide]
0.159 | CC(=O)Nc1ccc(Nc2ncc(Cc3ccc(S(C)(=O)=O)cc3)cc2-c2nc(C)nc3[nH]cnc23)cn1 [Example 105, N-(5-(3-(2-methyl-9H-purin-6-yl)-5-(4-(methylsulfonyl)benzyl)pyridin-2-ylamino)pyridin-2-yl)acetamide]
0.006 | COc1ncc(Nc2ncc(C(C)N3CCN(S(C)(=O)=O)CC3)cc2-c2nc(C)nc(N)n2)cc1F (stereo not shown) [Example 143, 4-(2-(5-fluoro-6-methoxypyridin-3-ylamino)-5-(1-(4-(methylsulfonyl)piperazin-1-yl)ethyl)pyridin-3-yl)-6-methyl-1,3,5-triazin-2-amine]
0.037 | COc1ncc(Nc2ncc(C(=O)N3CCN(S(C)(=O)=O)CC3)cc2-c2nc(C)nc(N)n2)cc1F [Example 152, 4-(2-((5-Fluoro-6-Methoxy-3-Pyridinyl)Amino)-5-((4-(Methylsulfonyl)-1-Piperazinyl)Carbonyl)-3-Pyridinyl)-6-Methyl-1,3,5-Triazin-2-Amine]
2.59 | Cc1nc(N)nc(-c2cccnc2Nc2ccc3oc(C)nc3c2)n1 [Example 165, N-(3-(4-Amino-6-Methyl-1,3,5-Triazin-2-yl)Pyridin-2-yl)-2-Methylbenzo[D]Oxazol-5-Amine]
0.014 | COc1ncc(Nc2ncc(C(C)(C)N3CCN(S(C)(=O)=O)CC3)cc2-c2nc(C)nc(N)n2)cc1F [Example 280, 4-(2-(5-Fluoro-6-Methoxypyridin-3-Ylamino)-5-(2-(4-(Methylsulfonyl)Piperazin-1-yl)Propan-2-yl)Pyridin-3-yl)-6-Methyl-1,3,5-Triazin-2-Amine]
0.24 | COc1ccc(Nc2nc(NC3CCCC3)ncc2-c2nc(C)nc(N)n2)cn1 [Example 126, 5-(4-amino-6-methyl-1,3,5-triazin-2-yl)-N2-cyclopentyl-N4-(6-methoxypyridin-3-yl)pyrimidine-2,4-diamine]
0.249 | COc1ccc(Nc2ncc(Cl)cc2-c2nc(C)nc3[nH]cnc23)cn1 [Example 127, 5-chloro-N-(6-methoxypyridin-3-yl)-3-(2-methyl-9H-purin-6-yl)pyridin-2-amine]
0.479 | COc1cccc(NCc2cnc(Nc3ccc(OC)nc3)c(-c3nc(C)nc4[nH]cnc34)c2)c1 [Example 78, 5-((3-methoxyphenylamino)methyl)-N-(6-methoxypyridin-3-yl)-3-(2-methyl-9H-purin-6-yl)pyridin-2-amine]
0.046 | Cc1nc(N)cc(-c2cc(C(C)N3CCOCC3)cnc2Nc2cnc(Cl)c(NS(=O)(=O)N(C)C)c2)n1 (stereo not shown) [Example 379, N-(2-Chloro-5-(3-(6-Amino-2-Methylpyrimidin-4-yl)-5-(1-Morpholinoethyl)Pyridin-2-Ylamino)Pyridin-3-yl)-N,N-Dimethylaminosulfamide]
0.04 | Cc1nc(N)cc(-c2cc([C@@H](C)N3CCOCC3)cnc2Nc2cnc(Cl)c(NS(=O)(=O)N(C)C)c2)n1 [Example 381, (R)—N-(2-Chloro-5-(3-(6-Amino-2-Methylpyrimidin-4-yl)-5-(1-Morpholinoethyl)Pyridin-2-Ylamino)Pyridin-3-yl)-N,N-Dimethylaminosulfamide]
0.012 | COc1ncc(Nc2ncc([C@@H](C)N3CCN(S(C)(=O)=O)C[C@H]3C)cc2-c2nc(C)nc(N)n2)cc1F [Example 360, 4-(2-(5-Fluoro-6-Methoxypyridin-3-Ylamino)-5-((R)-1-((R)-2-Methyl-4-(Methylsulfonyl)Piperazin-1-yl)Ethyl)Pyridin-3-yl)-6-Methyl-1,3,5-Triazin-2-Amine]

IC50 [µM] | Compound
0.092 | Cc1nc(-c2cccnc2Nc2ccc(NC(=O)C3CC3)cc2)c2nc[nH]c2n1 [Example 182, N-(4-(3-(2-Methyl-9H-Purin-6-yl)Pyridin-2-Ylamino)Phenyl)Cyclopropanecarboxamide]
0.019 | Cc1nc(N)nc(-c2cc(CN3CCN(S(C)(=O)=O)CC3)cnc2Nc2cc(F)cc3[nH]ncc23)n1 [Example 245, N-(3-(4-Amino-6-Methyl-1,3,5-Triazin-2-yl)-5-((4-(Methylsulfonyl)Piperazin-1-yl)Methyl)Pyridin-2-yl)-6-Fluoro-1H-Indazol-4-Amine]
0.026 | COc1ncc(Nc2ncc(C(N3CCN(S(C)(=O)=O)CC3)C(F)(F)F)cc2-c2nc(C)nc(N)n2)cc1F (stereo not shown) [Example 325, 4-(2-(5-Fluoro-6-Methoxypyridin-3-Ylamino)-5-(2,2,2-Trifluoro-1-(4-(Methylsulfonyl)Piperazin-1-yl)Ethyl)Pyridin-3-yl)-6-Methyl-1,3,5-Triazin-2-Amine]
0.891 | Cc1nc(N)nc(-c2cccnc2Nc2ccc(NC(=O)Nc3ccccc3)nc2)n1 [Example 190, 1-(5-(3-(4-Amino-6-Methyl-1,3,5-Triazin-2-yl)Pyridin-2-Ylamino)Pyridin-2-yl)-3-Phenylurea]
> 10 | COc1ccc(Nc2nc(-c3ccncc3)ncc2-c2nc(C)nc(N)n2)cn1 [Example 124, 4-(4-(6-methoxypyridin-3-ylamino)-2-(pyridin-4-yl)pyrimidin-5-yl)-6-methyl-1,3,5-triazin-2-amine]
0.072 | COc1ccc(Nc2ncc(CNc3cccnc3)cc2-c2nc(C)nc3[nH]cnc23)cn1 [Example 79, N-(6-methoxypyridin-3-yl)-3-(2-methyl-9H-purin-6-yl)-5-((pyridin-3-ylamino)methyl)pyridin-2-amine]
0.1 | CC(=O)Nc1ccc(Nc2ncc(Cl)cc2-c2nc(C)nc(N)n2)cn1 [Example 193, N-(5-(3-(4-Amino-6-Methyl-1,3,5-Triazin-2-yl)-5-Chloropyridin-2-Ylamino)Pyridin-2-yl)Acetamide]
0.005 | COc1ncc(Nc2ncc([C@@H](C)N3CCN(S(C)(=O)=O)CC3)cc2-c2nc(C)nc(N)n2)cc1F [Example 148, (R)-4-(2-(5-Fluoro-6-Methoxypyridin-3-Ylamino)-5-(1-(4-(Methylsulfonyl)Piperazin-1-yl)Ethyl)Pyridin-3-yl)-6-Methyl-1,3,5-Triazin-2-Amine]
> 10 | COC(=O)Nc1ccc(Nc2ncc(Cl)cc2-c2nc(C)nc(N)n2)cn1 [Example 194, Methyl 5-(3-(4-Amino-6-Methyl-1,3,5-Triazin-2-yl)-5-Chloropyridin-2-Ylamino)Pyridin-2-Ylcarbamate]
1.16 | Cc1nc(N)nc(-c2cc(C(C)(C)O)cnc2Nc2cncc(S(C)(=O)=O)c2)n1 [Example 355, 2-(5-(4-Amino-6-Methyl-1,3,5-Triazin-2-yl)-6-(5-(Methylsulfonyl)Pyridin-3-Ylamino)Pyridin-3-yl)Propan-2-ol]
0.001 | Cc1nc(N)nc(-c2cc(C3CCOCC3)cnc2Nc2cnc(Cl)c(NS(C)(=O)=O)c2)n1 [Example 328, N-(5-(3-(4-Amino-6-Methyl-1,3,5-Triazin-2-yl)-5-(Tetrahydro-2H-Pyran-4-yl)Pyridin-2-Ylamino)-2-Chloropyridin-3-yl)Methanesulfonamide]
1.16 | COc1cc(Nc2ncccc2-c2nc(C)nc(N)n2)ccc1F [Example 167, 4-(2-(4-Fluoro-3-Methoxyphenylamino)Pyridin-3-yl)-6-Methyl-1,3,5-Triazin-2-Amine]
1.15 | CCOc1ccc(Nc2ncccc2-c2nc(C)nc(N)n2)cn1 [Example 49, 4-(2-(6-ethoxypyridin-3-ylamino)pyridin-3-yl)-6-methyl-1,3,5-triazin-2-amine]
0.199 | COc1ncc(Nc2ncc(F)cc2-c2nc(C)nc(N)n2)cc1F [Example 185, 4-(5-Fluoro-2-(5-Fluoro-6-Methoxypyridin-3-Ylamino)Pyridin-3-yl)-6-Methyl-1,3,5-Triazin-2-Amine]
0.023 | Cc1nc(N)cc(-c2cc([C@H](C)N3CCOCC3)cnc2Nc2cnc(Cl)c(NS(=O)(=O)N(C)C)c2)n1 [Example 382, (S—)N-(2-Chloro-5-(3-(6-Amino-2-Methylpyrimidin-4-yl)-5-(1-Morpholinoethyl)Pyridin-2-Ylamino)Pyridin-3-yl)-N,N-Dimethylaminosulfamide]

Source: patent publication US8772480B2, “Inhibitors of PI3 kinase and/or mTOR” (priority 2009, dated 2014)
